We go through 10 compounds from PubChem BioAssay (NCI).

Some test systems named below: OVCAR-3 ovarian; MDA-MB-435; RXF 393 renal; SK-MEL-28 melanoma; DU-145 prostate; SNB-75 CNS; EKVX NSCLC; KM12 colon; HT29 colon; MALME-3M melanoma.
Common to all, as to assay: NCI anticancer screen, dose series, 48 h

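Briefly, cells in 96-well plates were exposed to five compound concentrations for 48 h, and endpoints were estimated by linear interpolation. Here, GI50 denotes the concentration required for 50% inhibition of growth. TGI: total growth inhibition.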

Regarding `C=C(Cl)COC(=O)Nc1cccc(Cl)c1`, the TGI in the assay on OVCAR-3 ovarian is greater than 100 µM; in the assay with MDA-MB-435 it was greater than 100 µM; with RXF 393 renal, 77.6 µM; in the assay with SK-MEL-28 melanoma, greater than 100 µM; in the assay with DU-145 prostate it was greater than 100 µM; with SNB-75 CNS, 83.7 µM. The figures for the TGI with EKVX NSCLC, with KM12 colon and with HT29 colon were 59.1 µM, greater than 100 µM and greater than 100 µM, respectively.

`Cc1ncc([N+](=O)[O-])n1CCNS(=O)(=O)CCCn1ccnc1[N+](=O)[O-]`: the TGI in the assay with OVCAR-3 ovarian, in the assay on MDA-MB-435, in the assay on RXF 393 renal, with SK-MEL-28 melanoma, with DU-145 prostate and with SNB-75 CNS was greater than 100 µM throughout. Also, the TGI with EKVX NSCLC, in the assay on KM12 colon, with HT29 colon and with MALME-3M melanoma was greater than 100 µM each time.

For `O=C1CCCCCCCC/C=C/CCC(c2ccco2)O1` (stereo not given), the GI50 is 39.4 µM in the assay with OVCAR-3 ovarian; 99.6 µM in the assay on MDA-MB-435; greater than 100 µM with RXF 393 renal; 73.3 µM in the assay with SK-MEL-28 melanoma; 57.2 µM in the assay on DU-145 prostate; 23.7 µM with SNB-75 CNS. Also, the GI50 in the assay on EKVX NSCLC was greater than 100 µM; in the assay on KM12 colon, 20.7 µM; with HT29 colon, 44.1 µM; in the assay on MALME-3M melanoma it was 6.7 µM. Also, the TGI in the assay on OVCAR-3 ovarian was greater than 100 µM; in the assay on MDA-MB-435 it was greater than 100 µM; in the assay on RXF 393 renal, greater than 100 µM; in the assay with SK-MEL-28 melanoma, greater than 100 µM; with DU-145 prostate, greater than 100 µM; in the assay on SNB-75 CNS it was 92 µM. In addition, the TGI in the assay with EKVX NSCLC was greater than 100 µM; in the assay on KM12 colon it was greater than 100 µM; in the assay on HT29 colon, greater than 100 µM; in the assay with MALME-3M melanoma, 62.6 µM.

Regarding `CN1c2ccccc2C(=O)NC12CCN(Cc1ccccc1)CC2`, the TGI in the assay on MDA-MB-435, with RXF 393 renal, with SK-MEL-28 melanoma, in the assay with DU-145 prostate, with SNB-75 CNS and in the assay with EKVX NSCLC was greater than 100 µM throughout. The TGI in the assay with KM12 colon, in the assay on HT29 colon and with MALME-3M melanoma was greater than 100 µM in each case.

As to `CC1(C)OC[C@@H]([C@@]2(CO[Si](C)(C)C(C)(C)C)CC=CC(=O)O2)O1`, the GI50 is 15.9 µM with OVCAR-3 ovarian; 22.8 µM in the assay on MDA-MB-435; 23.6 µM with RXF 393 renal; 21.8 µM in the assay on SK-MEL-28 melanoma; 18.7 µM in the assay on DU-145 prostate; 26.9 µM with EKVX NSCLC. In addition, the GI50 in the assay with KM12 colon was 31.1 µM; in the assay with HT29 colon it was 34.5 µM; in the assay on MALME-3M melanoma, 20.1 µM. Further, the TGI in the assay on OVCAR-3 ovarian turned out to be 39.7 µM; in the assay on MDA-MB-435, 57.4 µM; in the assay with RXF 393 renal it was 56.3 µM; in the assay with SK-MEL-28 melanoma it was 48.9 µM; in the assay on DU-145 prostate it was 40.9 µM; in the assay on EKVX NSCLC it was 63.3 µM. Further, the TGI in the assay with KM12 colon was greater than 100 µM; with HT29 colon, greater than 100 µM; in the assay with MALME-3M melanoma, 47.6 µM.

As to `CCCCCNC(=O)[C@@H]1CCCN2C(=O)CC[C@H](NC(=O)[C@H](Cc3ccc(OP(=O)(O)O)cc3)NC(C)=O)C(=O)N12`, the GI50 in the assay with OVCAR-3 ovarian, in the assay with MDA-MB-435, in the assay on RXF 393 renal, with SK-MEL-28 melanoma, in the assay on DU-145 prostate and with SNB-75 CNS was greater than 25 µM in each case. In addition, the GI50 in the assay on KM12 colon, in the assay on HT29 colon and with MALME-3M melanoma was greater than 25 µM each time. Also, the TGI with OVCAR-3 ovarian, in the assay with MDA-MB-435, in the assay with RXF 393 renal, with SK-MEL-28 melanoma, in the assay with DU-145 prostate and in the assay with SNB-75 CNS was greater than 25 µM throughout. Besides, the TGI in the assay with KM12 colon, with HT29 colon and with MALME-3M melanoma was greater than 25 µM throughout.

For the compound `CCOC(=O)Cc1csc(/N=C2\NC(=O)/C(=C3\C(=O)N(C)c4ccccc43)S2)n1`, the GI50 is 28.2 µM in the assay on OVCAR-3 ovarian; 36.6 µM in the assay with MDA-MB-435; 73.3 µM with RXF 393 renal; 80.3 µM in the assay on SK-MEL-28 melanoma; 41.4 µM in the assay with DU-145 prostate; 44.1 µM in the assay on EKVX NSCLC. Moreover, the figures for the GI50 in the assay with KM12 colon, in the assay on HT29 colon and in the assay with MALME-3M melanoma were 23.3 µM, 44.5 µM and 21.8 µM, respectively. The TGI is 72.7 µM with OVCAR-3 ovarian; greater than 100 µM in the assay with MDA-MB-435; greater than 100 µM with RXF 393 renal; greater than 100 µM in the assay on SK-MEL-28 melanoma; greater than 100 µM in the assay on DU-145 prostate; greater than 100 µM in the assay on EKVX NSCLC. For the same compound, the TGI in the assay with KM12 colon is 83.8 µM; in the assay on HT29 colon, greater than 100 µM; in the assay with MALME-3M melanoma it was 95.2 µM.

In the case of `N#CC1=C(N)N=C(N2CCCCC2)C(C#N)C12Nc1ccccc1S2` (stereo not given), the GI50 in the assay with MDA-MB-435 was 0.0184 µM; in the assay on RXF 393 renal, 27 µM; in the assay with SK-MEL-28 melanoma, 26.6 µM; in the assay on DU-145 prostate, 43 µM; with SNB-75 CNS, 84.1 µM; with EKVX NSCLC, 28.7 µM. For the same compound, the figures for the GI50 in the assay with KM12 colon, with HT29 colon and in the assay with MALME-3M melanoma were 25.6 µM, 29.8 µM and 47.2 µM, respectively. The TGI is 14.3 µM in the assay on MDA-MB-435; 65.1 µM in the assay on RXF 393 renal; greater than 100 µM with SK-MEL-28 melanoma; greater than 100 µM in the assay with DU-145 prostate; greater than 100 µM in the assay on SNB-75 CNS; 91.1 µM in the assay on EKVX NSCLC. Further, the TGI in the assay with KM12 colon, in the assay on HT29 colon and in the assay on MALME-3M melanoma was greater than 100 µM each time.

`S=c1nc(Oc2ccc(Cl)c(Cl)c2)[nH]c(=S)[nH]1`: the TGI is greater than 100 µM in the assay with OVCAR-3 ovarian; greater than 100 µM with MDA-MB-435; greater than 92.5 µM in the assay with SK-MEL-28 melanoma; greater than 100 µM with DU-145 prostate; greater than 84.5 µM with SNB-75 CNS; greater than 93.9 µM in the assay with EKVX NSCLC. The values for the TGI with KM12 colon, in the assay with HT29 colon and with MALME-3M melanoma were 33.6 µM, greater than 89.7 µM and greater than 71.3 µM, respectively.

Regarding `CCCc1ccc(S(=O)(=O)N[C@H]2CC[C@H]3[C@@H]4CCc5cc(O)ccc5[C@H]4CC[C@]23C)cc1`, the GI50 with MDA-MB-435 was 3.13 µM; in the assay with RXF 393 renal it was 1.67 µM; with SK-MEL-28 melanoma, 2.45 µM; with DU-145 prostate it was 4.04 µM; in the assay with SNB-75 CNS, 2.23 µM; with KM12 colon, 2.68 µM. Further, the GI50 with HT29 colon is 3.19 µM; in the assay with MALME-3M melanoma, 2.82 µM. Moreover, the TGI with MDA-MB-435 was found to be 11.1 µM; with RXF 393 renal it was 4.42 µM; in the assay on SK-MEL-28 melanoma it was 6.33 µM; with DU-145 prostate, 14 µM; in the assay on SNB-75 CNS, 9.98 µM; with KM12 colon it was 7.81 µM. The TGI in the assay with HT29 colon stood at 10.2 µM; in the assay on MALME-3M melanoma, 8.07 µM.
